Assays:
[1] = tested on: Mouse embryonic fibroblasts (MEFs), null Hras and Nras, floxed Kras; experiment: Growth inhibition of MEFs with floxed Kras locus; assay type: cell-based; details: 600 nM, 6 days, vs DMSO
Protocol: In parallel, cells were treated with DMSO or 4OHT at 600 nM for 6 days. […] Cells were then lysed and treated with a pro-fluorescent caspase 3/7 substrate (rhodamine 110 bis-N-CBZ-L-aspartyl-L-gluramyl-L-valyl-aspartic acid amide) for 16 hours and measured.
All cell culture assays were incubated at 37° C., 5% CO2 in media containing Dulbecco's Modified Eagle Medium (DMEM) with 10% fetal bovine serum (FBS) and 1% penicillin-streptomycin (PS). 384-well format for EC50 determination: cells were trypsinized, counted, and seeded into 384-well plates at 1,000 cells/well. After 12-16 hours, compounds (as 50 mM stocks in DMSO) were arrayed in an 8- or 16-point dilution series in 384-well polypropylene plates. Compound solutions were transferred at a 1:5 dilution into the assay plates. After 48 hours, a 50% Alamar blue solution was added to a final concentration of 10% Alamar blue. After 6 hours of incubation, fluorescence intensity was determined using a Victor3 plate reader (Perkin Elmer) with a 535 nm excitation filter and a 590 nm emission filter. All compound measurements were performed in triplicate. For experiments performed in 6-well format, cells were trypsinized, counted, and seeded into 6-well plates at 200,000 cells per well 16 h prior to use. […] After 24 hours, cells were trypsinized and viability was determined using Trypan Blue exclusion assay. […]

[2] = Microsomal stability; assay type: in vitro ADME; details: pH 7.4; mouse liver microsomes, 0.5 μM
Protocol: Test compounds (0.5 μM) were incubated at 37° C. for up to 45 minutes in 50 mM of potassium phosphate buffer (pH 7.4) containing microsomal protein (0.5 mg/mL) and an NADPH generating system (0.34 mg/mL β-nicotinamide adenine dinucleotide phosphate (NADP), 1.56 mg/mL glucose-6-phosphate, 1.2 units/mL glucose-6-phosphate dehydrogenase). At 0, 5, 15, 30 and 45 minute intervals an aliquot was taken and quenched with acetonitrile (ACN) containing an internal standard. No-cofactor controls at 45 minutes were prepared. Following completion of the experimentation, the samples were analyzed by LC-MS/MS using a Shimadzu HPLC and an Applied Biosystem AP 14000.

[3] = molecular target: T1, GppNHp-loaded KRASG12D (Homo sapiens, UniProt P01116, G12D); experiment: Microscale thermophoresis, lysine NT-647-labeled GppNHp-loaded KRAS^G12D; assay type: binding; details: MST, GppNHp-bound KRAS^G12D, Table 6; read-out: KD
T1 construct: made in house; host or cells: Escherichia coli BL21-Gold (DE3)
Protocol: Microscale Thermophoresis
KRAS^G12D (250 μM) in 25 mM HEPES, 100 mM sodium chloride, 2 mM TCEP with 20 mM EDTA and 1 mM GppNHp was shaken at 220 rpm at 30° C. to remove the endogenous nucleotide, The solution was placed on ice for 2 minutes prior to the addition of 65 mM MgCl2. After an additional 10 minutes incubation on ice, 200 uL of a 10 uM solution of KRAS^G12D was combined with 200 uL of a 20 uM solution of NT-647-NHS-ester dye (from a 652.4 μM stock). The protein/dye mixture was rotated at 4° C. for 30 minutes, before being separated from the excess dye and buffer exchanged into 25 mM Tris, 100 mM sodium chloride, 2 mM TCEP, and 5 mM MgCl2 via a nap-5 column. The test compounds were arrayed across a 16-point dilution series consisting of 1.5% DMSO with 25 mM Tris, 100 mM NaCl, 2 mM TCEP, 5 mM MgCl2 and 0.05% tween-20. Thermophoretic movement of the fluorescently labeled protein with the inhibitors was performed using a Monolith NT.115 (Nanotemper Technologies). RALA and RHOA were purchased commercially from Abcam (RALA CN:ab102555, RHOA CN:ab101594).
In another set of experiments, the top D38-A59 two-site multivalent compounds were evaluated by a RAS pulldown using the RAS binding domain of CRAF (the top two hits are shown in FIG. 14D). This abrogation of binding between RAS and its effector protein was also evident in the RAS-RALGDS interaction (FIG. 14E). To quantify the binding of the two-site compounds to RAS, MST was performed again using lysine NT-647-labeled, GppNHp-loaded KRAS^G12D. […] The third (Y32) site was extended into (compound 34MEW95) using this scaffold.
Docking scores and dissociation constants for binding to GppNHp-bound KRAS^G12D (PDB:4DSN) were measured as set forth above for additional 2- and 3-site compounds by microscale thermophoresis.

[4] = molecular target: T2, KRAS^G12D⋅BODIPY-GTP (Homo sapiens, UniProt P01116, G12D); experiment: Nucleotide displacement assay with BODIPY-GTP (fluorescence polarization); assay type: binding; details: 2.5 μM KRAS^G12D⋅BODIPY-GTP, 12 hours
T2 construct: made in house; host or cells: Escherichia coli BL21-Gold (DE3)
Protocol: Nucleotide Displacement Assay
To investigate whether compounds were binding to the same site as GTP, a fluorescent polarization assay was implemented using fluorescently-labeled BODIPY-GTP as a probe. When BODIPY-GTP is free in solution, it has a low polarization. However, when BODIPY-GTP is bound to K-Ras protein, the polarization intensity is high. K-Ras G12D bound to BODIPY-GTP was incubated with different concentrations of ligand or unlabeled GTP or GDP in buffer containing 25 mM Tris-HCl, pH 8, 100 mM NaCl, 5 mM MgCl2, 1 mM EDTA, and 1 mM TCEP. The final concentration of K-Ras G12D bound to BODIPY-GTP in each well was 2.5 μM. The samples were incubated at 25° C. for 12 hours with gentle shaking to allow for the slow intrinsic nucleotide release reaction to take place. The change in fluorescence was measured on a Victor3 plate reader (Perkin Elmer) in 384-well black low-volume plates (Corning, Inc.). The BODIPY-GTP fluorophore was excited at 485 nm and emission was monitored at 535 nm.

[5] = tested on: caspases 3 and 7 in HT-1080 (NRAS^Q61K) cells; experiment: Caspase 3/7 activation assay; assay type: cell-based; details: staurosporine 5 μM, 24 hours
Protocol: Caspase 3/7 Activation Assay
HT-1080 cells were seeded into 384-well plates at 1,000 cells/well. After 12-16 hours, compounds (as 50 mM stocks in DMSO) were arrayed in a dilution series in 384-well polypropylene plates. Compound solutions were transferred at a 1:5 dilution into the assay plates for a total volume of 40 μL. After 24 hours, 8 μL of a 1:100 solution of rhodamine 110 bis-(N-CBZ-1-aspartyl-1-glutamyl-1-valyl-aspartic acid amide) to lysis buffer (APO-1, Promega) was added and the plate was wrapped in aluminum foil and incubated at room temperature for 16 hours. Fluorescence intensity was then determined using a Victor3 plate reader (Perkin Elmer) with a 490 nm excitation filter and a 535 nm emission filter. A viability curve was performed in parallel with the same incubation time using the procedure described in the “cell viability assays” section.

T1 sequence (P01116 1-169 isoform P01116-2 G12D): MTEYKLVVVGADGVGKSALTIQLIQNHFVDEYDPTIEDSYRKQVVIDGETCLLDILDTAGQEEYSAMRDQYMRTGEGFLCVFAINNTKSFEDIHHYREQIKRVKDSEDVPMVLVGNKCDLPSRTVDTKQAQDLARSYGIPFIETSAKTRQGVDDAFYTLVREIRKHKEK
T2 sequence (P01116 1-169 isoform P01116-2 G12D): as above

| Molecule | Kd [3] [µM] | also measured |
| --- | --- | --- |
| 4-hydroxytamoxifen [Compound 4OHT, reference compound] | – | growth inhibition [1]: 91% |
| CCOc1ccc2ccc(=O)oc2c1 [7-ethoxycoumarin, reference compound] | – | half-life at 0.5 μM [2]: 3.9 min |
| O=C(NCCCn1cc(-c2c(C(F)(F)F)cccc2C(F)(F)F)c2cc(CN3CCN(Cc4cc(C(F)(F)F)cc(C(F)(F)F)c4)CC3)ccc21)C1CNCCN1 (stereo not shown) [Compound 32MEW56, N-(3-(5-((4-(3,5-bis(trifluoromethyl)benzyl)piperazin-1-yl)methyl)-3-(2,6-bis(trifluoromethyl)phenyl)-1H-indol-1-yl)propyl)piperazine-2-carboxamide] | > 10000 | – |
| Nc1nc2c(ncn2[C@@H]2O[C@H](COP(=O)(O)OP(=O)(O)O)[C@@H](O)[C@H]2O)c(=O)[nH]1 [GDP] | – | displacement of BODIPY-GTP [4]: can displace |
| Nc1nc2c(ncn2[C@@H]2O[C@H](COP(=O)(O)OP(=O)(O)OP(=O)(O)O)[C@@H](O)[C@H]2O)c(=O)[nH]1 [GTP] | – | displacement of BODIPY-GTP [4]: can displace |
| CN[C@@H]1C[C@H]2O[C@@](C)([C@@H]1OC)n1c3ccccc3c3c4c(c5c6ccccc6n2c5c31)C(=O)NC4 [staurosporine, reference compound] | – | fluorescence of caspase 3/7 substrate ([5]; 31MEW44 5 μM, 34MEW43 10 μM, 34MEW95 5 μM): Increased fluorescence; fluorescence of caspase 3/7 substrate ([5]; 31MEW44 2.5 and 5 μM): Increased fluorescence |

Continued, in another order:

| Kd [3] [µM] | Molecule | also measured |
| --- | --- | --- |
| 1350 | COc1ccccc1-c1cn(CCCNC(=O)C2(N)CCNCC2)c2cccc(CN3CCN(CCOc4ccc(Cl)cc4)CC3)c12 [Compound 34MEW45, 4-amino-N-(3-(4-((4-(2-(4-chlorophenoxy)ethyl)piperazin-1-yl)methyl)-3-(2-methoxyphenyl)-1H-indol-1-yl)propyl)piperidine-4-carboxamide] | – |
| 36 | O=C(NCCCn1cc(-c2cccc(F)c2)c2c(CN3CCN(CCOc4ccc(Cl)cc4)CC3)cccc21)C1(NCc2ccc(OCc3ccc(F)cc3)c(Cl)c2)CCNCC1 [Compound 35MEW12, 4-((3-chloro-4-((4-fluorobenzyl)oxy)benzyl)amino)-N-(3-(4-((4-(2-(4-chlorophenoxy)ethyl)piperazin-1-yl)methyl)-3-(3-fluorophenyl)-1H-indol-1-yl)propyl)piperidine-4-carboxamide] | – |
| 230 | COc1cc(CN2CCN(Cc3ccc4c(c3)c(-c3ccc(OC)cc3OC)cn4CCCNC(=O)C3CNCCN3)CC2)cc(OC)c1 (stereo not shown) [Compound 36MEW3, N-(3-(5-((4-(3,5-dimethoxybenzyl)piperazin-1-yl)methyl)-3-(2,4-dimethoxyphenyl)-1H-indol-1-yl)propyl)piperazine-2-carboxamide] | – |
| 26 | COc1cc(COc2ccc(CNC3(C(=O)NCCCn4cc(-c5ccc(OC(F)(F)F)cc5)c5cc(CN6CCN(Cc7c(Cl)cccc7Cl)CC6)ccc54)CCNCC3)cc2OC)cc(OC)c1 [Compound 43MEW63] | – |
| 7.9 | O=C(NCCCn1cc(-c2ccc(OC(F)(F)F)cc2)c2cc(CN3CCN(Cc4c(Cl)cccc4Cl)CC3)ccc21)C1(NCc2ccc(OCc3cc(C(F)(F)F)cc(C(F)(F)F)c3)cc2)CCNCC1 [Compound 43MEW65, 4-((4-((3,5-bis(trifluoromethyl)benzyl)oxy)benzyl)amino)-N-(3-(5-((4-(2,6-dichlorobenzyl)piperazin-1-yl)methyl)-3-(4-(trifluoromethoxy)phenyl)-1H-indol-1-yl)propyl)piperidine-4-carboxamide] | – |
| 24 | CC(C)Oc1ccccc1-c1ccc(CNC2(C(=O)NCCCn3cc(-c4ccc(OC(F)(F)F)cc4)c4cc(CN5CCN(Cc6c(Cl)cccc6Cl)CC5)ccc43)CCNCC2)nc1 [Compound 43MEW73, N-(3-(5-((4-(2,6-dichlorobenzyl)piperazin-1-yl)methyl)-3-(4-(trifluoromethoxy)phenyl)-1H-indol-1-yl)propyl)-4-(((5-(2-isopropoxyphenyl)pyridin-2-yl)methyl)amino)piperidine-4-carboxamide] | – |
